Data: ChEMBL document CHEMBL3785070, “Synthesis and evaluation of novel opioid ligands with a C-homomorphinan skeleton” (Bioorg Med Chem, 2016)

What was measured:
[1] = biological target: T1, Kappa-type opioid receptor (Homo sapiens, UniProt P41145); assay: Displacement of [3H]U-69,593 from human kappa opioid receptor expressed in CHO cell membranes
[2] = biological target: T2, Delta-type opioid receptor (Homo sapiens, UniProt P41143); assay: Displacement of [3H]DPDPE from human delta opioid receptor expressed in CHO cell membranes
Mu-type opioid receptor [3] = biological target: T3, Mu-type opioid receptor (Homo sapiens, UniProt P35372); assay: Displacement of [3H]DAMGO from human mu opioid receptor expressed in CHO cell membranes
Mu-type opioid receptor [4] = biological target: T3, Mu-type opioid receptor; assay: Agonist activity at human mu opioid receptor expressed in CHO cell membranes by [35S]GTPgammaS binding assay relative to DAMGO; assay type: functional
[5] = biological target: T2, Delta-type opioid receptor; assay: Agonist activity at human delta opioid receptor expressed in CHO cell membranes by [35S]GTPgammaS binding assay relative to SNC80; assay type: functional
[6] = biological target: T1, Kappa-type opioid receptor; assay: Agonist activity at human kappa opioid receptor expressed in CHO cell membranes by [35S]GTPgammaS binding assay relative to U-69,593; assay type: functional
CHO [7] = assay: Selectivity ratio of Ki for human mu opioid receptor expressed in CHO cell membranes to Ki for human delta opioid receptor expressed in CHO cell membranes; assay type: cell-based
CHO [8] = assay: Selectivity ratio of Ki for human kappa opioid receptor expressed in CHO cell membranes to Ki for human delta opioid receptor expressed in CHO cell membranes; assay type: cell-based
Mu-type opioid receptor [9] = biological target: T3, Mu-type opioid receptor; assay: Agonist activity at human mu opioid receptor expressed in CHO cell membranes by [35S]GTPgammaS binding assay; assay type: functional
[10] = biological target: T1, Kappa-type opioid receptor; assay: Agonist activity at human kappa opioid receptor expressed in CHO cell membranes by [35S]GTPgammaS binding assay; assay type: functional
[11] = biological target: T2, Delta-type opioid receptor; assay: Agonist activity at human delta opioid receptor expressed in CHO cell membranes by [35S]GTPgammaS binding assay; assay type: functional
Mu-type opioid receptor [12] = biological target: T3, Mu-type opioid receptor; assay: Agonist activity at human mu opioid receptor expressed in CHO cell membranes at 10 uM by [35S]GTPgammaS binding assay relative to DAMGO; assay type: functional
[13] = biological target: T1, Kappa-type opioid receptor; assay: Agonist activity at human kappa opioid receptor expressed in CHO cell membranes at 10 uM by [35S]GTPgammaS binding assay relative to U-69,593; assay type: functional

T2 sequence (P41143 whole entry): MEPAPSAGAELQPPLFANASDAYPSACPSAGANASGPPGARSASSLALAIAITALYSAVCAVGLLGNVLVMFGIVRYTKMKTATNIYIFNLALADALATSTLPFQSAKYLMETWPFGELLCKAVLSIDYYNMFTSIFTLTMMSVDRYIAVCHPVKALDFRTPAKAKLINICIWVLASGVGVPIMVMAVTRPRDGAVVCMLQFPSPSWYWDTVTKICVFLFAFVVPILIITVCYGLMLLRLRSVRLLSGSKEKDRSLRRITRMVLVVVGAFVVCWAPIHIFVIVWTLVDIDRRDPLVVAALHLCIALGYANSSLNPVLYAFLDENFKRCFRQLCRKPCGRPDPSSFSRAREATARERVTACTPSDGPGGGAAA
T3 sequence (P35372 whole entry): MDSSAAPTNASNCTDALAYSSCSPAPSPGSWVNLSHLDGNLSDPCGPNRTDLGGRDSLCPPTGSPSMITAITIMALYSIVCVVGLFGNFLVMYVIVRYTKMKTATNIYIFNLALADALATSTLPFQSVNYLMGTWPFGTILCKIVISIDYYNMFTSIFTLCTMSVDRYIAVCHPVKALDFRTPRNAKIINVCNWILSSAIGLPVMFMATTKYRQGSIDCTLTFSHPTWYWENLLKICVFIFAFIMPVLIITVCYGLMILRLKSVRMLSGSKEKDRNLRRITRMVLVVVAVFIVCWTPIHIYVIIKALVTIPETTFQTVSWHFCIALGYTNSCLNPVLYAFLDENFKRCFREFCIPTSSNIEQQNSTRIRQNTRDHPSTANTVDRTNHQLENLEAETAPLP
T1 sequence (P41145 whole entry): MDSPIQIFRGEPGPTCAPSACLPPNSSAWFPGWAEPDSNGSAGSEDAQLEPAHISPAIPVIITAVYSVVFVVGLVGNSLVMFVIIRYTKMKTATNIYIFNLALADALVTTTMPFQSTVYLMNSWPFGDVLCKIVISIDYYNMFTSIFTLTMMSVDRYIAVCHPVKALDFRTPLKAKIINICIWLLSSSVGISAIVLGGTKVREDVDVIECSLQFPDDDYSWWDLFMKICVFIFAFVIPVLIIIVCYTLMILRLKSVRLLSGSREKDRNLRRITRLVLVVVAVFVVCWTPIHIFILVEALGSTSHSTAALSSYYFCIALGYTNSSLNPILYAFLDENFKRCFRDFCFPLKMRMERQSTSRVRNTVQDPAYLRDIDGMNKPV

For `O=C1CCC[C@@]2(O)C3Cc4ccc(O)cc4[C@@]2(CCN3CC2CC2)C1`, the Ki [1] was 0.748 nM, the Ki [2] was 12.1 nM and the Ki (Mu-type opioid receptor [3]) was 0.692 nM.
With `Oc1ccc2c(c1)[C@]13CCN(CC4CC4)[C@H](C2)[C@]1(O)CCc1c([nH]c2ccccc12)C3` the Emax (Mu-type opioid receptor [4]) was 23.5%, the Emax [5] was 64.8% and the Emax [6] was 10%. It also gave a Ratio Ki (CHO [7]) of 10.8 and a Ratio Ki (CHO [8]) of 12.5.
In the case of `Oc1ccc2c(c1)[C@]13CCN(CC4CC4)C(C2)[C@]1(O)CCc1c([nH]c2ccccc12)C3`, the EC50 (Mu-type opioid receptor [9]) is reported as 6.23 nM, the Ki [1] is reported as 6.63 nM and the Ki [2] is reported as 0.531 nM. For the same molecule, the EC50 [10] was 3.19 nM, the Ki (Mu-type opioid receptor [3]) was 5.75 nM and the EC50 [11] was 1.06 nM.
For `Oc1ccc2c(c1)[C@]13CCN(CC4CC4)[C@@H](C2)[C@]1(O)Cc1c([nH]c2ccccc12)C3`, the Activity (Mu-type opioid receptor [12]) was 33%, the Emax [5] was 38.9% and the Emax [6] was 15.4%. It also gave a Ratio Ki (CHO [7]) of 261 and a Ratio Ki (CHO [8]) of 31.4.
`O=C1C[C@]23CCN(CC4CC4)C(Cc4ccc(O)cc42)[C@]3(O)CC/C1=C/c1ccccc1` gave an EC50 (Mu-type opioid receptor [9]) of 19.2 nM, a Ki [1] of 17.5 nM and a Ki [2] of 9.81 nM. The EC50 [10] was 21.4 nM, the Ki (Mu-type opioid receptor [3]) was 52.2 nM and the EC50 [11] was 1.83 nM.
`O=C1CC[C@@]2(O)[C@H]3Cc4ccc(O)cc4[C@@]2(CCN3CC2CC2)C1` was tested, and the Ki [1] was 0.648 nM, the Ki [2] was 2.62 nM and the Ki (Mu-type opioid receptor [3]) was 0.769 nM. For the same molecule, the Ratio Ki (CHO [7]) was 0.29 and the Ratio Ki (CHO [8]) was 0.25.
In the case of `O=C1C[C@]23CCN(CC4CC4)[C@H](Cc4ccc(O)cc42)[C@]3(O)C/C1=C\c1ccccc1`, the Activity (Mu-type opioid receptor [12]) is reported as 25.6%, the EC50 (Mu-type opioid receptor [9]) is reported as greater than 10000 nM and the Emax [5] is reported as 37%. The Ki [1] was 39.1 nM, the Ki [2] was 2.76 nM and the Emax [6] was 20.2%. The EC50 [10] was 8.02 nM, the Ki (Mu-type opioid receptor [3]) was 22 nM and the Ratio Ki (CHO [7]) was 8. It also gave a Ratio Ki (CHO [8]) of 14.2 and an EC50 [11] of 12.5 nM.
In the case of `Oc1ccc2c(c1)[C@]13CCN(CC4CC4)[C@H](C2)[C@]1(O)CCc1cc2ccccc2nc1C3`, the Emax (Mu-type opioid receptor [4]) is reported as 31.2%, the Emax [5] is reported as 104% and the Emax [6] is reported as 43.9%. The Ratio Ki (CHO [7]) was 7.7 and the Ratio Ki (CHO [8]) was 1.9.
Work on `O=C1C[C@]23CCN(CC4CC4)[C@H](Cc4ccc(O)cc42)[C@]3(O)CC/C1=C/c1ccccc1` yielded an Emax (Mu-type opioid receptor [4]) of 38.6%, an Emax [5] of 27% and an Emax [6] of 39.4%. For the same molecule, the Ratio Ki (CHO [7]) was 5.3 and the Ratio Ki (CHO [8]) was 1.8.
`O=C1CCC[C@@]2(O)[C@H]3Cc4ccc(O)cc4[C@@]2(CCN3CC2CC2)C1` gave a Ratio Ki (CHO [7]) of 0.057 and a Ratio Ki (CHO [8]) of 0.062.
In the case of `Oc1ccc2c(c1)[C@]13CCN(CC4CC4)C(C2)[C@]1(O)CCc1cc2ccccc2nc1C3`, the EC50 (Mu-type opioid receptor [9]) is reported as 11.6 nM, the Ki [1] is reported as 4.3 nM and the Ki [2] is reported as 2.3 nM. The EC50 [10] was 28.4 nM, the Ki (Mu-type opioid receptor [3]) was 17.6 nM and the EC50 [11] was 7.32 nM.
`O=C1C[C@]23CCN(CC4CC4)[C@H](Cc4ccc(O)cc42)[C@]3(O)C/C1=C/c1ccccc1` showed an Emax (Mu-type opioid receptor [4]) of 31.8%, an EC50 (Mu-type opioid receptor [9]) of 54.6 nM and an Emax [5] of 40.8%. The Ki [1] was 9.65 nM, the Ki [2] was 0.585 nM and the Activity [13] was 30%. The EC50 [10] was greater than 10000 nM, the Ki (Mu-type opioid receptor [3]) was 4.61 nM and the Ratio Ki (CHO [7]) was 7.9. It also gave a Ratio Ki (CHO [8]) of 16.5 and an EC50 [11] of 3.17 nM.
Work on `Oc1ccc2c(c1)[C@]13CCN(CC4CC4)C(C2)[C@]1(O)Cc1c([nH]c2ccccc12)C3` yielded an EC50 (Mu-type opioid receptor [9]) greater than 10000 nM, a Ki [1] of 2.97 nM and a Ki [2] of 0.0945 nM. The EC50 [10] was 3.76 nM, the Ki (Mu-type opioid receptor [3]) was 24.7 nM and the EC50 [11] was 1.4 nM.
Molecule `Oc1ccc2c(c1)[C@]13CCN(CC4CC4)[C@@H](C2)[C@]1(O)Cc1cc2ccccc2nc1C3` has an Activity (Mu-type opioid receptor [12]) of 20.8%, an Emax [5] of 82.6% and an Activity [13] of 28.1%. For the same molecule, the Ratio Ki (CHO [7]) was 23.8 and the Ratio Ki (CHO [8]) was 10.7.
For `O=C1/C(=C/c2ccccc2)C[C@@]2(O)[C@H]3Cc4ccc(O)c5c4[C@@]2(CCN3CC2CC2)[C@H]1O5` [BNTX], the Ki [1] was 28.3 nM, the Ki [2] was 3.53 nM and the Ki (Mu-type opioid receptor [3]) was 10.5 nM. The Ratio Ki (CHO [7]) was 3 and the Ratio Ki (CHO [8]) was 8.
`Oc1ccc2c(c1)[C@]13CCN(CC4CC4)C(C2)[C@]1(O)Cc1cc2ccccc2nc1C3` gave an EC50 (Mu-type opioid receptor [9]) greater than 10000 nM, a Ki [1] of 3.22 nM and a Ki [2] of 0.303 nM. It also gave an EC50 [10] greater than 10000 nM, a Ki (Mu-type opioid receptor [3]) of 7.2 nM and an EC50 [11] of 0.813 nM.
`O=C1C[C@]23CCN(CC4CC4)C(Cc4ccc(O)cc42)[C@]3(O)CC/C1=C\c1ccccc1` showed a Ki [1] of 9.11 nM, a Ki [2] of 0.644 nM and an EC50 [10] of 14.7 nM. The Ki (Mu-type opioid receptor [3]) was 5.81 nM and the EC50 [11] was greater than 10000 nM.
`O=C1C[C@]23CCN(CC4CC4)[C@H](Cc4ccc(O)cc42)[C@]3(O)CC/C1=C\c1ccccc1` gave an Emax [6] of 18.4%, a Ratio Ki (CHO [7]) of 9 and a Ratio Ki (CHO [8]) of 14.1.
